Data on four molecules can be found in ChEMBL document CHEMBL1157482, “Insight from molecular modeling into different conformation and SAR of natural steroids and unnatural 7-oxa-steroids” (Bioorg Med Chem Lett, 2008).

Series [1] concerns Rattus norvegicus. Kind of series: Antiprogestin activity against ovariectomized Sprague-Dawley rat assessed as effect on ethinyl estradiol-induced C3 expression at 10 mg/kg, po. The series is classed as functional.
Series [2] deals with Rattus norvegicus. Kind of series: Antiprogestin activity against ovariectomized po dosed Sprague-Dawley rat assessed as effect on ethinyl estradiol-induced C3 expression. Type of series: functional. As to conditions: read-out: ID50 (the source's name).
Series [3] is described as follows: Cmax in rat at 10 mg/kg, po. The series is classed as ADME, organism-based. On the set-up: dose 10 mg/kg, route oral. Particulars: in vivo.
The subject of series [4] is Rattus norvegicus. The experiment in a line: AUC (0 to infinity) in rat at 10 mg/kg, po. The series is classed as ADME, organism-based, Plasma. On the set-up: dose 10 mg/kg, route oral, time infinity. Particulars: in vivo.
Series [5] can be described thus: Tmax in rat at 10 mg/kg, po. The series is classed as ADME, organism-based. Details: dose 10 mg/kg, route oral. Particulars: in vivo.
Series [6] concerns Rattus norvegicus. The experiment in a line: AUC (last) in rat at 10 mg/kg, po. Type of series: ADME, organism-based, Plasma. On the set-up: time 0 - last, dose 10 mg/kg, route oral. As to conditions: in vivo.
Series [7] in a line: Half life in rat at 10 mg/kg, po. Details: dose 10 mg/kg, route oral. As to conditions: in vivo. Type of series: ADME, organism-based.
Series [8] in a line: Mean retention time in rat at 10 mg/kg, po. Type of series: ADME, organism-based. On the set-up: dose 10 mg/kg, route oral. As to conditions: in vivo.
The test system of series [9] is Rattus norvegicus. The experiment in a line: AUC (last) in rat at 30 mg/kg, po. The series is classed as ADME, organism-based, Plasma. On the set-up: time 0 - last, dose 30 mg/kg, route oral. As to conditions: in vivo.
The test system of series [10] is Rattus norvegicus. Kind of series: AUC (0 to infinity) in rat at 30 mg/kg, po. Details: time infinity, dose 30 mg/kg, route oral. Particulars: in vivo. Type of series: ADME, organism-based, Plasma.
Series [11] in a line: Half life in rat at 30 mg/kg, po. Details: dose 30 mg/kg, route oral. As to conditions: in vivo. Type of series: ADME, organism-based.
The nature of series [12]: Cmax in rat at 30 mg/kg, po. The series is classed as ADME, organism-based. Details: dose 30 mg/kg, route oral. Particulars: in vivo.
The nature of series [13]: Mean retention time in rat at 30 mg/kg, po. On the set-up: dose 30 mg/kg, route oral. Particulars: in vivo. The series is classed as ADME, organism-based.
Series [14] is described as follows: Tmax in rat at 30 mg/kg, po. On the set-up: dose 30 mg/kg, route oral. The series is classed as ADME, organism-based. Particulars: in vivo.

As for `CC#C[C@]1(O)CC[C@H]2[C@@H]3OCC4=CC(=O)CCC4=C3[C@@H](c3ccc(N(C)C)cc3)C[C@@]21C`, the Efficacy in the series on Rattus norvegicus [1] turned out to be 110%. In the series with Rattus norvegicus [2], the ED50 worked out at 2.4 mg/kg.

In series [3], `CN(C)c1ccc([C@H]2C[C@@]3(C)[C@@H](CC[C@@]3(O)C#Cc3ccc(F)cc3)[C@@H]3OCC4=CC(=O)CCC4=C32)cc1` gave a Cmax of 48.7 ng/mL. The exposure (AUC) came to 505 ng·h/mL with Rattus norvegicus [4] and 460 ng·h/mL in the series on Rattus norvegicus [6]. Also, in series [5], the Tmax was determined as 3 h. The same molecule had a half-life in series [7] of 6.88 h. This molecule also registered an MRT in series [8] of 9.4 h.

Regarding `CN(C)c1ccc([C@H]2C[C@@]3(C)[C@@H](CC[C@@]3(O)C#Cc3ccccc3)[C@@H]3OCC4=CC(=O)CCC4=C32)cc1`, the Efficacy in the series with Rattus norvegicus [1] is listed as 100%. In the series on Rattus norvegicus [2], the ED50 was 2.5 mg/kg.

Take `CC#C[C@]1(O)CC[C@H]2[C@@H]3CCC4=CC(=O)CCC4=C3[C@@H](c3ccc(N(C)C)cc3)C[C@@]21C` [MIFEPRISTONE]: the AUC is 446 ng·h/mL in the series with Rattus norvegicus [9] and 3570 ng·h/mL with Rattus norvegicus [10]. Besides, in [11], the half-life is 5.56 h. Also, the Cmax in series [12] was 53.8 ng/mL. Besides, in the series with Rattus norvegicus [1], the Efficacy was determined as 130%. Also, in the series on Rattus norvegicus [2], the ED50 turned out to be 2.1 mg/kg. Besides, the MRT in series [13] came to 8 h. Besides, in series [14], the time of peak concentration (Tmax) was found to be 12.5 h.

A word on the Cmax: it is the peak of the concentration-time curve. Broadly, the AUC is the area under the concentration-time curve, a measure of exposure. Read a high AUC as high exposure. One may read the Tmax as the time at which the peak concentration occurs. A word on the half-life: it is the time needed for the level to fall by half in the phase considered. A high value points to slow decline. In general, MRT refers to a mean duration of stay, worked out from the concentration-time curve.
